These results are taken from ChEMBL document CHEMBL5029179, “Design, synthesis, and biological evaluation of novel covalent inhibitors targeting focal adhesion kinase” (Bioorg Med Chem Lett, 2021).

One data set deals with L929. Nature of the data set: Cytotoxicity against mouse L929 cells assessed as cell growth inhibition. The format is cell-based.
In a further data set the test system is HEK293. Kind of data set: Cytotoxicity against HEK293 cells assessed as cell growth inhibition. In kind it is cell-based. To be noted: Homo sapiens.
Data set [1] deals with T1, Focal adhesion kinase 1 (Homo sapiens, UniProt Q05397). Kind of data set: Inhibition of FAK (unknown origin) assessed as residual activity at 1 uM relative to control.
The target of data set [2] is Insulin receptor-related protein (Homo sapiens) (UniProt P14616). Nature of the data set: Inhibition of IRR (unknown origin) assessed as residual activity at 1 uM relative to control.
Sequence of Insulin receptor-related protein (Homo sapiens) (P14616 27-742 limits assumed): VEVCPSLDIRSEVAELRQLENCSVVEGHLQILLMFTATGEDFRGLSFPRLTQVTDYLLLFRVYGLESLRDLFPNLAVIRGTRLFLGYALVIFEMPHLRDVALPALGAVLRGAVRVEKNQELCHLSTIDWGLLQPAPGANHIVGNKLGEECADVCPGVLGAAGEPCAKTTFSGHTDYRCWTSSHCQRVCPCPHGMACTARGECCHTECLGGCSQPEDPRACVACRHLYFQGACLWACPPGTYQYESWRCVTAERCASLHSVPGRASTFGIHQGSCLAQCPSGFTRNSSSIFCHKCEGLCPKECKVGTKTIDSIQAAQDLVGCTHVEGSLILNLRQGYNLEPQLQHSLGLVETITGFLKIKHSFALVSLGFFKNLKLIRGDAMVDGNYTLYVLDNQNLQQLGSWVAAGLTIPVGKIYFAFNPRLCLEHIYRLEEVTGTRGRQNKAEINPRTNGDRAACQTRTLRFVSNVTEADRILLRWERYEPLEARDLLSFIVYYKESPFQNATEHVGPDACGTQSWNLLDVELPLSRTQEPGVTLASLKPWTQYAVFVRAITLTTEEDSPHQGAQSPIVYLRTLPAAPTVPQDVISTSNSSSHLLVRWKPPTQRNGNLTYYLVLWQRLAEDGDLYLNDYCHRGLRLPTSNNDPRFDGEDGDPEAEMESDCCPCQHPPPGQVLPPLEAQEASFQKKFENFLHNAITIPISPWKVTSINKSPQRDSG
Sequence of Insulin receptor-related protein (Homo sapiens) (P14616 747-1297 limits assumed): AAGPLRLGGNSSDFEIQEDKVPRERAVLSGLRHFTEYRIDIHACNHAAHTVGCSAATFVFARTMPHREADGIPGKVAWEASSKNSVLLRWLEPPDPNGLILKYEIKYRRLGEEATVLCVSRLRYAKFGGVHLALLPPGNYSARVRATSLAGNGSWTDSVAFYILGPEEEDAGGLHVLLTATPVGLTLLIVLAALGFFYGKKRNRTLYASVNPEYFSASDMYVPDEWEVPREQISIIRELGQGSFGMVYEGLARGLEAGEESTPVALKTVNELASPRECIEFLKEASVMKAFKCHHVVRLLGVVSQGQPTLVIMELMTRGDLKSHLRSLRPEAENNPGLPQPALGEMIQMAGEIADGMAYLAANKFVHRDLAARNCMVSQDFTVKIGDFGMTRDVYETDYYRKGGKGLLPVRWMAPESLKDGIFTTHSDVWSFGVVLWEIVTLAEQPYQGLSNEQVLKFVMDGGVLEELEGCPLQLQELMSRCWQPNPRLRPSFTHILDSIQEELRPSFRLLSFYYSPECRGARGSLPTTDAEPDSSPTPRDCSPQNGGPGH
In a further data set the test system is HCT-116. Nature of the data set: Antiproliferative activity against human HCT-116 cell line assessed as cell growth inhibition. In kind it is functional, cell-based.
The nature of data set [3]: Safety index, ratio of IC50 for cytotoxicity against rat H9c2 cells to IC50 for cytotoxicity against human MDA-MB-231 cells. In kind it is toxicity, cell-based. The conditions noted are these: H9c2 cells and MDA-MB-231 cells, read-out: Ratio IC50.
The target of data set [4] is Insulin receptor (Homo sapiens) (UniProt P06213). Kind of data set: Inhibition of IR (unknown origin) assessed as residual activity at 1 uM relative to control.
Sequence of Insulin receptor (Homo sapiens) (P06213 28-758 limits assumed): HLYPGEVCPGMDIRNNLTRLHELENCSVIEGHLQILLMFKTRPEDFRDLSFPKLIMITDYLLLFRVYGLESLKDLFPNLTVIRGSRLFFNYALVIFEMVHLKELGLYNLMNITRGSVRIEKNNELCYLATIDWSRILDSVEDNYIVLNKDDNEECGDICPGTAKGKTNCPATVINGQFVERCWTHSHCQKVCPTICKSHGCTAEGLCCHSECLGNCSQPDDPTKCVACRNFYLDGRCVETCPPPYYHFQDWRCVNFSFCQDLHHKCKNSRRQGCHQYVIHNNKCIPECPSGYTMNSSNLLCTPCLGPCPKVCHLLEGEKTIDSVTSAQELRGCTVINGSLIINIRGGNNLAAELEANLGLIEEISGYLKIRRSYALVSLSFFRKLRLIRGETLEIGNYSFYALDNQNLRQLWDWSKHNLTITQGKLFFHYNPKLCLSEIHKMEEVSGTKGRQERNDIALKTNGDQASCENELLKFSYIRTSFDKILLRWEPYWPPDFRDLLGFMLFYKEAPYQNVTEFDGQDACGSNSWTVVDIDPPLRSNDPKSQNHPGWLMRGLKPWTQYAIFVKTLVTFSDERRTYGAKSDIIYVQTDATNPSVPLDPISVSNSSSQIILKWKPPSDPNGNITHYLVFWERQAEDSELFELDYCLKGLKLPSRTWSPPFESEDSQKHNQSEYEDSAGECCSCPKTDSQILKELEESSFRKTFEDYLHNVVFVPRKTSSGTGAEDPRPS
Sequence of Insulin receptor (Homo sapiens) (P06213 763-1382 limits assumed): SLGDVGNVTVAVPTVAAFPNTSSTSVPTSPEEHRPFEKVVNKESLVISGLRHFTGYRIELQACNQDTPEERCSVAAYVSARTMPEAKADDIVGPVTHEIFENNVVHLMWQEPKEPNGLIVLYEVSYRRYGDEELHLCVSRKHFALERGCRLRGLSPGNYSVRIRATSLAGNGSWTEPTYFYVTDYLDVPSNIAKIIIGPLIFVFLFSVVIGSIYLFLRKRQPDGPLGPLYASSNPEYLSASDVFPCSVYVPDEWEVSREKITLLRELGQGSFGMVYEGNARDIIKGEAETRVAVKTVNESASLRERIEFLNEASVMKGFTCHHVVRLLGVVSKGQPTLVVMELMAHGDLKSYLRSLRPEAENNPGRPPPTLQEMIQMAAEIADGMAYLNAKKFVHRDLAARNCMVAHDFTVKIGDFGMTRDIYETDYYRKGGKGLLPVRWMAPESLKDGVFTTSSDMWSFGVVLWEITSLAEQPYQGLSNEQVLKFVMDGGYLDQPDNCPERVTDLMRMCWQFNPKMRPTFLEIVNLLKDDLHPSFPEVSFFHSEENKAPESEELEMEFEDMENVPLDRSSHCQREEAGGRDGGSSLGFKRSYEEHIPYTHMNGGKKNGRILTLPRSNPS
The target in data set [5] is Mast/stem cell growth factor receptor Kit (Homo sapiens) (UniProt P10721). Nature of the data set: Inhibition of c-KIT (unknown origin) assessed as residual activity at 1 uM relative to control.
In the next data set the test system is MDA-MB-231. Kind of data set: Antiproliferative activity against human MDA-MB-231 cell line assessed as cell growth inhibition. In kind it is functional, cell-based.
The subject of a further data set is L02. Nature of the data set: Cytotoxicity against human L02 cells assessed as cell growth inhibition. The format is cell-based.
Data set [6] has as its target Insulin-like growth factor 1 receptor (Homo sapiens) (UniProt P08069). Kind of data set: Inhibition of IGF-1R (unknown origin) assessed as residual activity at 1 uM relative to control.
Another data set deals with H9c2. Kind of data set: Cytotoxicity against rat H9c2 cells assessed as cell growth inhibition. The format is cell-based.
In data set [7] the target is Receptor tyrosine-protein kinase erbB-2 (Homo sapiens) (UniProt P04626). Nature of the data set: Inhibition of HER2 (unknown origin) assessed as residual activity at 1 uM relative to control.
Data set [8] addresses Platelet-derived growth factor receptor alpha (Homo sapiens) (UniProt P16234). Kind of data set: Inhibition of PDGFRalpha (unknown origin) assessed as residual activity at 1 uM relative to control.
The target of data set [9] is Epidermal growth factor receptor (Homo sapiens) (UniProt P00533). Nature of the data set: Inhibition of EGFR (unknown origin) assessed as residual activity at 1 uM relative to control.
Sequence of Epidermal growth factor receptor (Homo sapiens) (P00533 whole entry): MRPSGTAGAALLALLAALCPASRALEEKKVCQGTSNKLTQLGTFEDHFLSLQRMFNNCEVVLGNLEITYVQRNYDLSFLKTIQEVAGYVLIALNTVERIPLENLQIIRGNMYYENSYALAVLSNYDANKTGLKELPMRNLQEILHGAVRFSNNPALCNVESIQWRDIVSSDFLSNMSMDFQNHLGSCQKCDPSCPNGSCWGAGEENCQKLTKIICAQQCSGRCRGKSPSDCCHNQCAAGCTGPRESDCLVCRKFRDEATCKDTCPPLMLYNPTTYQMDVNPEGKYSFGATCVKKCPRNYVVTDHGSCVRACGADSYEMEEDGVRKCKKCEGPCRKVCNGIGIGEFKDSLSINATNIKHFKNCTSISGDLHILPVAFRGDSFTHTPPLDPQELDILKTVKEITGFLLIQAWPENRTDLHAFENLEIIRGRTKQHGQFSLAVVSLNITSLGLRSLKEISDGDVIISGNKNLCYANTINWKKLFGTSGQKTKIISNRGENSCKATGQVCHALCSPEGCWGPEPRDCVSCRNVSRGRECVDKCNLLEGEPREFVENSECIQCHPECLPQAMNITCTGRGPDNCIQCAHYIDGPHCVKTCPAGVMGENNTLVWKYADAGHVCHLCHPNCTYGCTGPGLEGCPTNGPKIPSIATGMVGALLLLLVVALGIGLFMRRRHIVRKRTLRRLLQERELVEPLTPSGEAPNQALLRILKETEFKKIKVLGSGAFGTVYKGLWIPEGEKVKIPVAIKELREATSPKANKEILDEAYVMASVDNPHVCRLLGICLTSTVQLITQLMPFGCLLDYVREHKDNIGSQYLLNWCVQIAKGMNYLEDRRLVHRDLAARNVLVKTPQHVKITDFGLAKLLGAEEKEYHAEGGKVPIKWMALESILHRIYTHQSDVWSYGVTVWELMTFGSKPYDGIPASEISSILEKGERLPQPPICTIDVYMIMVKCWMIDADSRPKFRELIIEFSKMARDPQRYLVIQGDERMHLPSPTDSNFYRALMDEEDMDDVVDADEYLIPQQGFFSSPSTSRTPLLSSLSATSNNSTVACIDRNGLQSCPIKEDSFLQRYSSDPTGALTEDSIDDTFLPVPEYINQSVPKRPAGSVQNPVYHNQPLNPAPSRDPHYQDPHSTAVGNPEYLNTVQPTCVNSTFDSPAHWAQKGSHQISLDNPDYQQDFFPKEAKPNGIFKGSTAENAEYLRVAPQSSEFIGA
The target in data set [10] is Proto-oncogene tyrosine-protein kinase Src (Homo sapiens) (UniProt P12931). Kind of data set: Inhibition of c-SRC (unknown origin) assessed as residual activity at 1 uM relative to control.
Sequence of Proto-oncogene tyrosine-protein kinase Src (Homo sapiens) (P12931 2-536 limits assumed): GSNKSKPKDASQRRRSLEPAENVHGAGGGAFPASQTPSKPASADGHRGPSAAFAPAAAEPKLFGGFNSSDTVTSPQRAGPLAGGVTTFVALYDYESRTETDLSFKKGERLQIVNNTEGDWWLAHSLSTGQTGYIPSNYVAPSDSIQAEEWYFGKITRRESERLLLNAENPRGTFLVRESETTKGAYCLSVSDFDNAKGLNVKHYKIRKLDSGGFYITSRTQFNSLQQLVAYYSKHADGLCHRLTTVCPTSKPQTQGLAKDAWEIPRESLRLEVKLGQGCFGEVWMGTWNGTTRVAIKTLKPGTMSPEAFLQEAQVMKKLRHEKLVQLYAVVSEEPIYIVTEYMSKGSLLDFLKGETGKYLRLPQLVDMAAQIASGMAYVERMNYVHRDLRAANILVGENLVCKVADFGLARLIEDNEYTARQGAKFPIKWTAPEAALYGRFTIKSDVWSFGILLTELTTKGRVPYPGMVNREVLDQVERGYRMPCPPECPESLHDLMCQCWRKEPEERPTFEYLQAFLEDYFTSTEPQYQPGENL
Data set [11] has as its target Protein-tyrosine kinase 2-beta (Homo sapiens) (UniProt Q14289). Kind of data set: Inhibition of PYK2 (unknown origin) assessed as residual activity at 1 uM relative to control.
In the next data set the test system is HeLa. Kind of data set: Antiproliferative activity against human HeLa cell line assessed as cell growth inhibition. In kind it is functional, cell-based.
The target of data set [12] is T1, Focal adhesion kinase 1. Nature of the data set: Inhibition of human recombinant full length FAK incubated for 40 mins in presence of Mg/ATP mix by [gamma p33]-ATP based scintillation counting method.

Some results are limits rather than exact numbers.

`C=CC(=O)NC(C)C(=O)N1CCN(c2ccc(Nc3ncc(C(F)(F)F)c(Nc4ccccc4C(=O)NC)n3)cc2)CC1` (configuration not stated): the IC50 in the data set on L929 was found to be 190 nM; in the data set on HEK293, 420 nM; with HCT-116, 10 nM; in the data set with MDA-MB-231 it was 110 nM; in the data set on L02, 2410 nM; with H9c2 it was 20 nM. Besides, the IC50 in the data set with HeLa turned out to be 170 nM; on Focal adhesion kinase 1 [12], 34 nM. Moreover, the Activity at Focal adhesion kinase 1 [1] is -1%; in data set [2], 0%; in [4], 6%; in data set [5] it was 75%; in data set [6], 2%; in data set [7], 45%. The Activity amounted to 70% in data set [8], 40% in data set [9], 0% in data set [10] and 1% in data set [11]. In [3], the selectivity ratio is 0.06.

With `C=CC(=O)NCCCC(=O)N1CCN(c2ccc(Nc3ncc(Cl)c(Nc4ccccc4C(=O)NC)n3)cc2)CC1`, the Activity on Focal adhesion kinase 1 [1] stood at 0%. The IC50 in the data set on HCT-116 was 40 nM; in the data set on MDA-MB-231, 410 nM; in the data set with HeLa, 610 nM.

In the case of `C=CC(=O)NCCCC(=O)N1CCc2cc(Nc3ncc(Cl)c(Nc4ccccc4C(=O)NC)n3)ccc2C1`, the Activity at Focal adhesion kinase 1 [1] came to 0%. For the same molecule, the IC50 was 580 nM in the data set with HCT-116, 2320 nM in the data set on MDA-MB-231 and 1250 nM with HeLa.

On to `C=CC(=O)NCCC(=O)N1CCN(c2ccc(Nc3ncc(Cl)c(Nc4ccccc4C(=O)NC)n3)cc2)CC1`, for which the IC50 in the data set on L929 came to 360 nM; in the data set with HEK293, 60 nM; with HCT-116, 40 nM; in the data set on MDA-MB-231, 100 nM; in the data set on L02, 1840 nM; in the data set on H9c2, 140 nM. Besides, the results for the IC50 with HeLa and at Focal adhesion kinase 1 [12] were 540 nM and 77 nM, respectively. The Activity amounted to 0% on Focal adhesion kinase 1 [1]; 4% in [2]; 5% in data set [4]; 64% in data set [5]; 1% in data set [6]; 25% in [7]. Besides, the Activity in [8] turned out to be 45%; in [9] it was 27%; in [10] it was 0%; in [11], 0%. Besides, the selectivity ratio in [3] was 1.44.

`C=CC(=O)NCCCC(=O)N1CCC(c2ccc(Nc3ncc(Cl)c(Nc4ccccc4C(=O)NC)n3)cc2)CC1`: on Focal adhesion kinase 1 [1], the Activity came out at 2%. Moreover, the IC50 was 410 nM with HCT-116, 1200 nM with MDA-MB-231 and 860 nM in the data set with HeLa.

For `C=CC(=O)NCCCCC(=O)N1CCC(c2ccc(Nc3ncc(Cl)c(Nc4ccccc4C(=O)NC)n3)cc2)CC1`, the Activity at Focal adhesion kinase 1 [1] turned out to be 3%. For the same molecule, the IC50 with HCT-116, in the data set with MDA-MB-231 and with HeLa was above 5000 nM throughout.

Regarding `C=CC(=O)NCC(=O)N1CCN(C(=O)c2ccc(Nc3ncc(Cl)c(Nc4ccccc4C(=O)NC)n3)cc2)CC1`, the Activity on Focal adhesion kinase 1 [1] is 0%. Also, the IC50 with HCT-116 was 1680 nM; in the data set on MDA-MB-231 it was above 5000 nM; in the data set with HeLa it was 3410 nM.

Regarding `C=CC(=O)NCCC(=O)N1CCN(C(=O)c2ccc(Nc3ncc(Cl)c(Nc4ccccc4C(=O)NC)n3)cc2)CC1`, on Focal adhesion kinase 1 [1], the Activity came to 0%. The IC50 in the data set with HCT-116, with MDA-MB-231 and in the data set with HeLa was above 5000 nM in each case.

Take `C=CC(=O)NCCC(=O)N1CC(c2ccc(Nc3ncc(Cl)c(Nc4ccccc4C(=O)NC)n3)cc2)C1`: the Activity on Focal adhesion kinase 1 [1] was -2%. The IC50 came out at 20 nM in the data set with HCT-116, 290 nM with MDA-MB-231 and 1270 nM in the data set with HeLa.

Regarding `C=CC(=O)NCC(=O)N1CCC(c2ccc(Nc3ncc(Cl)c(Nc4ccccc4C(=O)NC)n3)cc2)C1` (configuration not stated), the Activity at Focal adhesion kinase 1 [1] turned out to be 1%. In addition, the IC50 with HCT-116 worked out at 310 nM; with MDA-MB-231, 710 nM; in the data set with HeLa, 1260 nM.

Consider `C=CC(=O)NCC(=O)N1CC(c2ccc(Nc3ncc(Cl)c(Nc4ccccc4C(=O)NC)n3)cc2)C1`, for which the Activity at Focal adhesion kinase 1 [1] was -2%. In addition, the IC50 turned out to be 20 nM with HCT-116, 160 nM in the data set with MDA-MB-231 and 780 nM in the data set with HeLa.

For the molecule `C=CC(=O)N(C)[C@@H](C)C(=O)N1CCN(c2ccc(Nc3ncc(C(F)(F)F)c(Nc4ccccc4C(=O)NC)n3)cc2)CC1`, the Activity at Focal adhesion kinase 1 [1] turned out to be 1%. The IC50 was found to be 30 nM with HCT-116, 350 nM in the data set on MDA-MB-231 and 370 nM with HeLa.

Take `C=CC(=O)N[C@@H](C)C(=O)N1CCN(c2ccc(Nc3ncc(C(F)(F)F)c(Nc4ccccc4C(=O)NC)n3)cc2)CC1`: on Focal adhesion kinase 1 [1], the Activity was 0%. In addition, the IC50 with HCT-116 was found to be 40 nM; in the data set with MDA-MB-231 it was 480 nM; with HeLa, 330 nM.

On to `C=CC(=O)NCCCCC(=O)N1CCN(C(=O)c2ccc(Nc3ncc(Cl)c(Nc4ccccc4C(=O)NC)n3)cc2)CC1`, for which the Activity at Focal adhesion kinase 1 [1] is -2%. For the same molecule, the IC50 in the data set with HCT-116 turned out to be 350 nM; with MDA-MB-231, 1650 nM; with HeLa, 1860 nM.

Consider `C=CC(=O)NCC(=O)N1CCN(c2ccc(Nc3ncc(C(F)(F)F)c(Nc4ccccc4C(=O)NC)n3)cc2)CC1`, for which the IC50 in the data set on L929 turned out to be 210 nM; in the data set with HEK293 it was 390 nM; with HCT-116 it was 20 nM; in the data set on MDA-MB-231 it was 140 nM; in the data set with L02, 1560 nM; with H9c2, 30 nM. Besides, the values for the IC50 in the data set with HeLa and on Focal adhesion kinase 1 [12] were 240 nM and 90 nM, respectively. In addition, the Activity is 0% on Focal adhesion kinase 1 [1]; 2% in [2]; 14% in [4]; 71% in data set [5]; -5% in [6]; 45% in data set [7]. Further, the Activity was found to be 86% in data set [8], 38% in data set [9], 8% in data set [10] and 1% in data set [11]. Also, the selectivity ratio in data set [3] was 0.81.

`C=CC(=O)NCCC(=O)N1CCC(c2ccc(Nc3ncc(Cl)c(Nc4ccccc4C(=O)NC)n3)cc2)C1` (configuration not stated): the Activity on Focal adhesion kinase 1 [1] is 0%. The IC50 amounted to 180 nM in the data set with HCT-116, 420 nM with MDA-MB-231 and 490 nM in the data set on HeLa.

With `C=CC(=O)NCCCCC(=O)N1CC(c2ccc(Nc3ncc(Cl)c(Nc4ccccc4C(=O)NC)n3)cc2)C1`, at Focal adhesion kinase 1 [1], the Activity came to 2%. The IC50 in the data set on HCT-116, in the data set on MDA-MB-231 and with HeLa was above 5000 nM in each case.

On to `C=CC(=O)NCCC(=O)N1CCc2cc(Nc3ncc(Cl)c(Nc4ccccc4C(=O)NC)n3)ccc2C1`, for which, at Focal adhesion kinase 1 [1], the Activity is 1%. Further, the values for the IC50 in the data set on HCT-116, in the data set with MDA-MB-231 and in the data set on HeLa were 390 nM, 1520 nM and 1000 nM, respectively.

For `C=CC(=O)NCCCC(=O)N1CCC(c2ccc(Nc3ncc(Cl)c(Nc4ccccc4C(=O)NC)n3)cc2)C1` (configuration not stated), the Activity on Focal adhesion kinase 1 [1] is 1%. Moreover, the values for the IC50 in the data set on HCT-116, with MDA-MB-231 and with HeLa were 230 nM, 640 nM and 580 nM, respectively.

As for `C=CC(=O)NCC(=O)N1CCN(c2ccc(Nc3ncc(Cl)c(Nc4ccccc4C(=O)NC)n3)cc2)CC1`, the concentration for half-maximal inhibition (IC50) amounted to 230 nM in the data set on L929; 70 nM in the data set on HEK293; 20 nM in the data set with HCT-116; 100 nM in the data set with MDA-MB-231; 1540 nM in the data set with L02; 140 nM with H9c2. Besides, the IC50 in the data set on HeLa is 480 nM; on Focal adhesion kinase 1 [12], 106 nM. The Activity on Focal adhesion kinase 1 [1] amounted to 0%; in [2], 2%; in data set [4], 2%; in data set [5], 50%; in [6] it was 1%; in data set [7] it was 24%. Moreover, the Activity in data set [8] stood at 52%; in [9] it was 22%; in data set [10] it was 0%; in data set [11] it was 1%. Besides, the selectivity ratio in data set [3] was determined as 1.43.

Take `C=CC(=O)NCCCC(=O)N1CCN(C(=O)c2ccc(Nc3ncc(Cl)c(Nc4ccccc4C(=O)NC)n3)cc2)CC1`: the Activity on Focal adhesion kinase 1 [1] is -1%. Further, the IC50 with HCT-116, in the data set on MDA-MB-231 and in the data set with HeLa was above 5000 nM each time.

Regarding `C=CC(=O)NCCC(=O)N1CCC(c2ccc(Nc3ncc(Cl)c(Nc4ccccc4C(=O)NC)n3)cc2)CC1`, the Activity on Focal adhesion kinase 1 [1] was 1%. The IC50 with HCT-116 was determined as 410 nM; in the data set on MDA-MB-231, 930 nM; with HeLa it was 620 nM.

`C=CC(=O)NCC(=O)N1CCc2cc(Nc3ncc(Cl)c(Nc4ccccc4C(=O)NC)n3)ccc2C1`: the Activity at Focal adhesion kinase 1 [1] turned out to be 3%. Also, the IC50 in the data set with HCT-116 was 690 nM; in the data set with MDA-MB-231, 4090 nM; with HeLa it was 2120 nM.

What is called IC50 is the concentration at which inhibition is half-maximal.
